Measurements reported in PMC9321742 (Viruses, 2022).
Read-outs that look alike come from different tables or passages of the source.

Key:
[1] = test system: SARS-CoV-2 omicron BA.2; test: microbe, parasite or virus in culture; format: cell-based; settings: read-out: IC50 BA.2 Mean ± SD
[2] = test system: SARS-CoV-2 delta; test: microbe, parasite or virus in culture; format: cell-based; settings: VERO E6, plus 0.5 µM P-gp inhibitor CP-100356, MOI 0.005, 72 h, read-out: IC50 Delta Mean ± SD
[3] = test system: VERO E6 cells
[4] = in vitro; settings: African green monkey
[5] = test system: SARS-CoV-2 omicron BA.1; test: microbe, parasite or virus in culture; format: cell-based; settings: read-out: IC50 BA.1 Mean ± SD
[6] = Severe acute respiratory syndrome coronavirus 2, Vero C1008, VERO E6, plus 0.5 µM P-gp inhibitor CP-100356, MOI 0.005, 72 h
[7] = Severe acute respiratory syndrome coronavirus 2, Vero C1008

CC(C)(C)[C@H](NC(=O)C(F)(F)F)C(=O)N1C[C@H]2[C@@H]([C@H]1C(=O)N[C@H](C#N)C[C@@H]1CCNC1=O)C2(C)C [Nirmatrelvir]
IC50 [1, 6]: 40 ± 10 nM
IC50 [2, 7]: 60 ± 10 nM
CC50 ([3]; African green monkey): 40700 ± 4400 nM
CC50 [4]: 69600 ± 1000 nM
IC50 [5, 6]: 40 ± 20 nM

O=c1nc(NO)ccn1[C@@H]1O[C@H](CO)[C@@H](O)[C@H]1O [EIDD-1931]
IC50 [1]: 800 ± 10 nM
IC50 [2]: 1500 ± 700 nM
CC50 [3]: 43300 ± 6000 nM
IC50 [5]: 1000 ± 500 nM

CP-100356 hydrochloride
Decrease of cell viability [3]: 20%

CCC(CC)COC(=O)[C@H](C)N[P@](=O)(OC[C@H]1O[C@@](C#N)(c2ccc3c(N)ncnn23)[C@H](O)[C@@H]1O)Oc1ccccc1 [Remdesivir]
IC50 [1, 6]: 80 ± 10 nM
IC50 [2, 7]: 110 ± 80 nM
IC50 [5, 6]: 50 ± 40 nM
